Values after ≈ are worked out from the molar mass of the structure shown.
Legend:
[1] = Solubility of olaparib at room temperature; type: physicochemical; conditions: for solubility: organic solvent or mixture
Experimental: (§1) “Solvent” refers to a liquid substance capable of dissolving olaparib at a concentration of at least about 2.5% (w/w) at 60° C.

[2] = Solubility of olaparib at 60° C. in solvents and anti-solvents; type: physicochemical
Experimental: as §1
In the Tables above, examples of good solvents include, but are not limited to, an alcohol (e.g., methanol or ethanol), acetic acid, dimethylacetamide, dimethyl sulfoxide and pyridine. Examples of poor solvents (anti-solvents) include, but are not limited to, water, toluene, acetonitrile, cyclohexane, isopropanol, tetrahydrofuran, n-butanol, xylenes, ethyl acetate and n-heptane.

SMILES: O=C(c1cc(Cc2n[nH]c(=O)c3ccccc23)ccc1F)N1CCN(C(=O)C2CC2)CC1 [olaparib, 4-[(3-[(4-cyclopropylcarbonyl)piperazin-4-yl]carbonyl)-4-fluorophenyl]methyl(2H)phthalazin-1-one]
- Solubility of olaparib ([1]; AcOH): >20.0 wt %
- Solubility of olaparib (Summary, solvents for olaparib) ([1]; AcOH, DMSO): >15% (w/w)
- Solubility of olaparib ([1]; DMSO): >19.1 wt %
- solubility ([1]; acetic acid (AcOH), AcOH): > 210 mg/mL
- solubility ([1]; dimethyl sulfoxide (DMSO), DMSO): > 210 mg/mL
- Solubility of olaparib ([2]; ACN): <2.1 wt %
- Solubility of olaparib ([2]; DMAc): >23.5 wt %
- Solubility of olaparib (Summary, solvents for olaparib) ([2]; DMAc, Pyridine): >15% (w/w)
- Solubility of olaparib ([2]; EA): <1.8 wt %
- Solubility of olaparib ([2]; EtOH): 2.6-2.9 wt %
- Solubility of olaparib (Summary, solvents for olaparib) ([2]; EtOH, MeOH): 2.5-10% (w/w)
- Solubility of olaparib ([2]; IPA): <2.1 wt %
- Solubility of olaparib ([2]; MeOH): 6.7-8.8 wt %
- Solubility of olaparib ([2]; Pyridine): >21.5 wt %
- Solubility of olaparib ([2]; THF): <1.9 wt %
- Solubility of olaparib ([2]; Toluene): <1.9 wt %
- Solubility of olaparib (Summary, anti-solvents for olaparib) ([2]; Toluene, ACN, Cyclohexane, IPA, THF, EA, Xylenes, n-heptane, Water, n-butanol): <2.5% (w/w)
- Solubility of olaparib ([2]; Xylenes): <1.9 wt %
- solubility ([2]; acetonitrile (ACN), organic solvent or mixture, ACN): < 16.2 mg/mL
- Solubility of olaparib ([2]; cyclohexane): <2.1 wt %
- solubility ([2]; dimethylacetamide (DMAc), organic solvent or mixture, DMAc): > 220 mg/mL
- solubility ([2]; ethanol (EtOH), organic solvent or mixture, EtOH): 21 to 23 mg/mL (≈ 48.3 to 52.9 mM)
- solubility ([2]; ethyl acetate (EA), organic solvent or mixture, EA): < 16.2 mg/mL
- solubility ([2]; isopropanol (IPA), organic solvent or mixture, IPA): < 16.2 mg/mL
- solubility ([2]; methanol (MeOH), organic solvent or mixture, MeOH): 53 to 70 mg/mL (≈ 122 to 161 mM)
- Solubility of olaparib ([2]; n-butanol): <2.1 wt %
- Solubility of olaparib ([2]; n-heptane): <2.4 wt %
- solubility ([2]; organic solvent or mixture, Pyridine): > 210 mg/mL
- solubility ([2]; organic solvent or mixture, Toluene): < 16.9 mg/mL
- solubility ([2]; organic solvent or mixture, Xylenes): < 16.2 mg/mL
- solubility ([2]; organic solvent or mixture, cyclohexane): < 16.2 mg/mL
- solubility ([2]; organic solvent or mixture, n-butanol): < 16.9 mg/mL
- solubility ([2]; organic solvent or mixture, n-heptane): < 16.2 mg/mL
- solubility ([2]; tetrahydrofuran (THF), organic solvent or mixture, THF): < 16.9 mg/mL
- Solubility of olaparib ([2]; water): <1.6 wt %
- solubility ([2]; water): < 16.2 mg/mL

From US10703728B1, “Crystalline form of olaparib and a process for preparing the same” (SCINOPHARM TAIWAN, LTD., priority 2019, dated 2020)
